Legend:
[1] = biological target: TANK binding kinase (TBK1) (Homo sapiens (Human), UniProt Q9UHD2); assay: TBK1 enzyme assay (384-well Flashplate kinase assay); assay type: biochemical; settings: 10 μM ATP, 120 Min at 30° C.
Description: Test for the Inhibition of TBK1
The kinase assay is performed as 384-well Flashplate assay (for e.g. Topcount measurement. 0.6 nM TANK binding kinase (TBK1), 800 nM biotinylated MELK-derived peptide (Biotin-Ah-Ah-[…]) SEQ ID NO: 2 and 10 μM ATP (spiked with 0.25 μCi ^33P-ATP/well) are incubated in a total volume of 50 μl (10 mM MOPS, 10 mM Mg-acetat, 0.1 mM EGTA, 1 mM DTT, 0.02% Brij35, 0.1% BSA, pH 7.5) with or without test compound for 120 Min at 30° C. The reaction is stopped with 25 μl 200 mM EDTA. After 30 Min at room temperature the liquid is removed and each well washed thrice with 100 μl 0.9% sodium chloride solution. Nonspecific reaction is determined in presence of 100 nM Staurosporine. Radioactivity is measured in a Topcount (PerkinElmer). Results (e.g. IC50-values) are calculated with program tools provided by the IT-department (e.g. AssayExplorer, Symyx).

[2] = biological target: IKKε (Homo sapiens (Human), UniProt Q14164); assay: IKKε kinase assay (384-well Flashplate); assay type: biochemical; settings: 10 μM ATP, 2 hours at 30° C.; read-out: IKKε enzyme assay IC50
Description: Test for the Inhibition of IKKε
IKKε—Kinase Assay (IKKepsilon)
The kinase assay is performed either as 384-well Flashplate assay (for e.g. Topcount measurement). […] The reaction is stopped with 25 μl 200 mM EDTA. After 30 Min at room temperature the liquid is removed and each well washed thrice with 100 μl 0.9% sodium chloride solution. […] Radioactivity is measured with Topcount (PerkinElmer). Results (e.g. IC50-values) are calculated with program tools provided by the IT-department (e.g. AssayExplorer, Symyx).

Chain of TANK binding kinase (TBK1) (Q9UHD2 whole entry): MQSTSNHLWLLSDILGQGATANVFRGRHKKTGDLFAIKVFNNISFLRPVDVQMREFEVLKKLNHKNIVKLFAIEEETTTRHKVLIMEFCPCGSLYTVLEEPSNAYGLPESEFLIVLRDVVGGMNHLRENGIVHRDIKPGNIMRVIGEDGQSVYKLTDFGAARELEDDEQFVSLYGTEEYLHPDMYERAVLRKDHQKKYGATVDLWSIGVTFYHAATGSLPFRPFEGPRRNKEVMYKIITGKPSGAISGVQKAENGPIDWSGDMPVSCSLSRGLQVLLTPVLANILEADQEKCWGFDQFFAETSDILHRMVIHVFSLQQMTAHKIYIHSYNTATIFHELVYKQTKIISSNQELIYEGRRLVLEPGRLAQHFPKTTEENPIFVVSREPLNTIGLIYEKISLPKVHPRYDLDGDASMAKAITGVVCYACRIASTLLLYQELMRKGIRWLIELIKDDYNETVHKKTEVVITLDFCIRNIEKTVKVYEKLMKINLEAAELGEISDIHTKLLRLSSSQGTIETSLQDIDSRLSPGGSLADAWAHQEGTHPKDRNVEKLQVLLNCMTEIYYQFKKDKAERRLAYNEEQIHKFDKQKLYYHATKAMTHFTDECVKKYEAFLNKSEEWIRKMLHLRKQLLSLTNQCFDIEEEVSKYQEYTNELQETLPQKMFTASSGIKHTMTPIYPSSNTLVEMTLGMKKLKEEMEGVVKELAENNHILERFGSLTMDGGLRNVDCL
Chain of IKKε (Q14164 whole entry): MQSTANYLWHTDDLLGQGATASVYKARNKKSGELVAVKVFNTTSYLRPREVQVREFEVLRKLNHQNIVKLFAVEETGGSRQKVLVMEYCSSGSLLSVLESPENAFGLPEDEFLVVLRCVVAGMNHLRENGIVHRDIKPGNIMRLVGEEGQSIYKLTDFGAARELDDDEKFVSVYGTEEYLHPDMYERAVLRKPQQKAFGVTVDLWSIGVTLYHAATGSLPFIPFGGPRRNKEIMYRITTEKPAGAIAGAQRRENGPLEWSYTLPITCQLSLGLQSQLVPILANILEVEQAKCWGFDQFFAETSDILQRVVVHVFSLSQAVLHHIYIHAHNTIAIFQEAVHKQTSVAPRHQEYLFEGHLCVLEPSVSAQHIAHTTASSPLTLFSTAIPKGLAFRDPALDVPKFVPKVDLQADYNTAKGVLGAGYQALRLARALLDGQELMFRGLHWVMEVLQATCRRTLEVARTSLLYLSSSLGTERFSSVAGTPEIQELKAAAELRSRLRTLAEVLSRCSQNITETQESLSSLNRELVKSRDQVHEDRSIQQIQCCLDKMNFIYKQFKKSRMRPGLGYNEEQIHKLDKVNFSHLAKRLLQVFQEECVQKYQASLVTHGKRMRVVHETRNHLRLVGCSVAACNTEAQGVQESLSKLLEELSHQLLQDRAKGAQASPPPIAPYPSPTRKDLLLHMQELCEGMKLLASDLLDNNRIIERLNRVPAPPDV

SMILES	IC50 [1] [nM]	IC50 [2] [nM]
CN1CCN(Cc2ccc(C(=O)Nc3sc(-c4ccnc(C(F)(F)F)c4)nc3C(N)=O)cc2)CC1 [Compound A8, 5-[4-(4-methyl-piperazin-1-ylmethyl)-benzoylamino]-2-(2-trifluoromethyl-pyridin-4-yl)-thiazole-4-carboxylic acid amide]	6300	2100
CN1CCN(Cc2ccc(C(=O)Nc3sc(-c4ccnc(C#N)c4)nc3C(N)=O)cc2)CC1 [Compound A9, 2-(2-cyano-pyridin-4-yl)-5-[4-(4-methyl-piperazin-1-ylmethyl)-benzoylamino]-thiazole-4-carboxylic acid amide]	2000	740
CN1CCN(Cc2ccc(Nc3sc(-c4ccncc4)nc3C(N)=O)cc2)CC1 [Compound A14, 5-[4-(4-methyl-piperazin-1-ylmethyl)-phenylamino]-2-pyridin-4-yl-thiazole-4-carboxylic acid amide]	1700	420
Cc1cc(-c2nc(C(N)=O)c(NC(=O)c3ccc(CN4CCN(C)CC4)cc3)s2)cc(C)n1 [Compound A16, 2-(2,6-dimethyl-pyridin-4-yl)-5-[4-(4-methyl-piperazin-1-ylmethyl)-benzoylamino]-thiazole-4-carboxylic acid amide]		3800
CN1CCN(Cc2ccc(C(=O)Nc3sc(-c4ccncc4Br)nc3C(N)=O)cc2)CC1 [Compound A18, 2-(3-bromo-pyridin-4-yl)-5-[4-(4-methyl-piperazin-1-ylmethyl)-benzoylamino]-thiazole-4-carboxylic acid amide]	310	190
NC(=O)c1nc(-c2ccncc2)sc1NC(=O)c1cn[nH]c1 [Compound A42, 5-[(1H-pyrazole-4-carbonyl)-amino]-2-pyridin-4-yl-thiazole-4-carboxylic acid amide]	2700	730
NC(=O)c1nc(-c2ccncc2)sc1NC(=O)c1ccc(N2CCOCC2)nc1 [Compound A43, N-(4-carbamoyl-2-pyridin-4-yl-thiazol-5-yl)-6-morpholin-4-yl-nicotinamide]	7300	2000
NC(=O)c1nc(-c2ccncc2)sc1NC(=O)c1cnn(CC2CCNCC2)c1 [Compound A44, 5-[(1-piperidin-4-ylmethyl-1H-pyrazole-4-carbonyl)-amino]-2-pyridin-4-yl-thiazole-4-carboxylic acid amide]	7900	
CN1CCN(Cc2ccc(C(=O)Nc3sc(-c4ccncc4)nc3C#N)cc2)CC1 [Compound A45, N-(4-cyano-2-pyridin-4-yl-thiazol-5-yl)-4-(4-methyl-piperazin-1-ylmethyl)-benzamide]	8200	
NC(=O)c1nc(-c2ccncc2)sc1NC(=O)c1ccccc1 [Compound A56, 5-benzoylamino-2-pyridin-4-yl-thiazole-4-carboxylic acid amide]	3600	
NC(=O)c1nc(-c2ccncc2)sc1NC(=O)c1cccs1 [Compound A62, 2-pyridin-4-yl-5-[(2-thienylcarbonyl)amino]-1,3-thiazole-4-carboxamide]	2000	
NC(=O)c1nc(-c2ccncc2)sc1NC(=O)c1ccoc1 [Compound A64, 5-(3-furoylamino)-2-pyridin-4-yl-1,3-thiazole-4-carboxamide]	4600	

The next lines start with the values.

IC50 [1] [nM]	IC50 [2] [nM]	SMILES
630	540	CN1CCN(Cc2ccc(C(=O)Nc3sc(-c4ccnc(F)c4)nc3C(N)=O)cc2)CC1 [Compound A6, 2-(2-fluoro-pyridin-4-yl)-5-[4-(4-methyl-piperazin-1-ylmethyl)-benzoylamino]-thiazole-4-carboxylic acid amide]
410	390	Cc1cc(-c2nc(C(N)=O)c(NC(=O)c3ccc(CN4CCN(C)CC4)cc3)s2)ccn1 [Compound A7, 5-[4-(4-methyl-piperazin-1-ylmethyl)-benzoylamino]-2-(2-methyl-pyridin-4-yl)-thiazole-4-carboxylic acid amide]
1400	140	CN1CCN(Cc2ccc(C(=O)Nc3sc(-c4ccncc4C(F)(F)F)nc3C(N)=O)cc2)CC1 [Compound A17, 5-[4-(4-methyl-piperazin-1-ylmethyl)-benzoylamino]-2-(3-trifluoromethyl-pyridin-4-yl)-thiazole-4-carboxylic acid amide]
370	280	CN1CCN(Cc2ccc(C(=O)Nc3sc(-c4ccncc4F)nc3C(N)=O)cc2)CC1 [Compound A19, 2-(3-fluoro-pyridin-4-yl)-5-[4-(4-methyl-piperazin-1-ylmethyl)-benzoylamino]-thiazole-4-carboxylic acid amide]
640	630	CN1CCN(Cc2ccc(C(=O)Nc3sc(-c4ccncc4Cl)nc3C(N)=O)cc2)CC1 [Compound A20, 2-(3-chloro-pyridin-4-yl)-5-[4-(4-methyl-piperazin-1-ylmethyl)-benzoylamino]-thiazole-4-carboxylic acid amide]
46	14	COc1cnccc1-c1nc(C(N)=O)c(NC(=O)c2ccc(CN3CCN(C)CC3)cc2)s1 [Compound A21, 2-(3-methoxy-pyridin-4-yl)-5-[4-(4-methyl-piperazin-1-ylmethyl)-benzoylamino]-thiazole-4-carboxylic acid amide]
350	300	Cc1cnccc1-c1nc(C(N)=O)c(NC(=O)c2ccc(CN3CCN(C)CC3)cc2)s1 [Compound A22, 2-(3-methyl-pyridin-4-yl)-5-[4-(4-methyl-piperazin-1-ylmethyl)-benzoylamino]-thiazole-4-carboxylic acid amide]
95	260	NC(=O)c1nc(-c2ccncc2)sc1NC(=O)c1ccc(CN2CCNCC2)cc1 [Compound A24, 5-(4-piperazin-1-ylmethyl-benzoylamino)-2-pyridin-4-yl-thiazole-4-carboxylic acid amide]
100	31	CN1CCC(Cc2ccc(C(=O)Nc3sc(-c4ccncc4)nc3C(N)=O)cc2)CC1 [Compound A26, 5-[4-(1-methyl-piperidin-4-ylmethyl)-benzoylamino]-2-pyridin-4-yl-thiazole-4-carboxylic acid amide]
140	100	CC(=O)N1CCN(Cc2ccc(C(=O)Nc3sc(-c4ccncc4)nc3C(N)=O)cc2)CC1 [Compound A27, 5-[4-(4-acetyl-piperazin-1-ylmethyl)-benzoylamino]-2-pyridin-4-yl-thiazole-4-carboxylic acid amide]
710	200	CN1CCN(Cc2ccc(C(=O)Nc3sc(-c4ccncc4)nc3C(N)=O)cc2)CC1 [Compound A37, 5-[4-(4-methyl-piperazin-1-ylmethyl)-benzoylamino]-2-pyridin-4-yl-thiazole-4-carboxylic acid amide]
1250	280	CN(C)Cc1ccc(C(=O)Nc2sc(-c3ccncc3)nc2C(N)=O)cc1 [Compound A40, 5-(4-dimethylaminomethyl-benzoylamino)-2-pyridin-4-yl-thiazole-4-carboxylic acid amide]
1500		COc1ccc(C(=O)Nc2sc(-c3ccncc3)nc2C(N)=O)cc1OC [Compound A41, 5-(3,4-dimethoxy-benzoylamino)-2-pyridin-4-yl-thiazole-4-carboxylic acid amide]
